Measured values: US9309308B2, “Monoclonal antibodies for tumor treatment” (CURETECH LTD., priority 2008, dated 2016)
Where “and” joins values, the source holds several entries; their conditions need not be identical. Identical values can stand only once. Like-named read-outs stand apart in the source and are kept apart here.

Columns and labels:
murine lymphocytes = test: In vitro functional assay based on viability of murine lymphocytes; format: cell-based
Experimental: FIG. 1C. The effect of 5FU or vehicle control in the functional assay presented as viable cells/ml. The incubation time with 5FU or vehicle control (72 hours) is indicated on the x-axis.

topoisomerase I = biological target: T1, topoisomerase I (Homo sapiens, UniProt P11387); settings: cited from earlier work
T1 sequence (P11387 1-765): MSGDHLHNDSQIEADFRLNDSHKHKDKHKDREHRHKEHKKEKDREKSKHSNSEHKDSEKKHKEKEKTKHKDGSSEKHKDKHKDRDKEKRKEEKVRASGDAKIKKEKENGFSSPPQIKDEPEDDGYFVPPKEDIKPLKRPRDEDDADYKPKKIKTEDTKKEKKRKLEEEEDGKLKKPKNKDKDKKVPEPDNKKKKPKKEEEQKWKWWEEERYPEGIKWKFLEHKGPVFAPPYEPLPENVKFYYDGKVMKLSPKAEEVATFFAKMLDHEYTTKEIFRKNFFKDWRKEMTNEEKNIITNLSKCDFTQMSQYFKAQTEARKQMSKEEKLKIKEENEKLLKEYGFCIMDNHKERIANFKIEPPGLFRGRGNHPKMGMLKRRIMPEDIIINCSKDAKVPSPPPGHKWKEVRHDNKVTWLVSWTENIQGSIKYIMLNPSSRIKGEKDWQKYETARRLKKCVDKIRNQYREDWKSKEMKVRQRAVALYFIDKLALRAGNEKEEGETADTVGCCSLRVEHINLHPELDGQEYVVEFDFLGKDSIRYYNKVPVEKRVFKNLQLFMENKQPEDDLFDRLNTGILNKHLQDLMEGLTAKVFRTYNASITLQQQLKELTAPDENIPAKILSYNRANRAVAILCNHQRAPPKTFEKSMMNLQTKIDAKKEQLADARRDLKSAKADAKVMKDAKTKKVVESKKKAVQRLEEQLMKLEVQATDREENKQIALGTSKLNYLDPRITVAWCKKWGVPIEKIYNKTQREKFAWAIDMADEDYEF

[1] = tested on: advanced hematological malignancies
[2] = human, in vivo
[3] = Phase I clinical trial of CT-011, pharmacokinetics; settings: Table 2 patients
[4] = murine lymphocytes, agent combined with hBAT-1
[5] = AML patient receiving CT-011 at 0.2 and 3 mg/kg
[6] = Pt. 003/016, AML, 0.2/3.0 mg/kg

Compound: O=c1[nH]cc(F)c(=O)[nH]1 [5FU, 5-fluorouracil]
- effect of chemotherapeutic agent on the activity of hBAT-1 (murine lymphocytes; [4]): do not adversely affect the activity of hBAT-1
- cell survival with chemotherapeutic agent on its own (murine lymphocytes; without hBAT-1, FIG. 1C): did not enhance cell survival

Compound: CCc1c2c(nc3ccc(O)cc13)-c1cc3c(c(=O)n1C2)COC(=O)[C@]3(O)CC [SN-38, 7-ethyl-10-hydroxy-camptothecin]
- cell survival when given in combination with hBAT-1 (murine lymphocytes): do not enhance cell survival
- potency relative to parent compound irinotecan (topoisomerase I): One thousand-fold more potent

Compound: N.N.[Cl][Pt][Cl] [cisplatin, cis-diamminedichloridoplatinum II]
- effect of chemotherapeutic agent on the activity of hBAT-1 (murine lymphocytes; [4]): do not adversely affect the activity of hBAT-1

Compound: O=P1(N(CCCl)CCCl)NCCCO1 (stereo not drawn) [cyclophosphamide]
- cell survival when given in combination with hBAT-1 (murine lymphocytes; murine lymphocyte culture): do not enhance cell survival

Compound: Nc1ccn([C@@H]2O[C@H](CO)[C@@H](O)[C@@H]2O)c(=O)n1 [cytarabine]
- effect of chemotherapeutic agent on the activity of hBAT-1 (murine lymphocytes; [4]): do not adversely affect the activity of hBAT-1

Compound: O=C1[O][Pt]2([NH][C@@H]3CCCC[C@H]3[NH]2)[O]C1=O [oxaliplatin]
- effect of chemotherapeutic agent on the activity of hBAT-1 (murine lymphocytes): do not adversely affect the activity of hBAT-1

Compound: CC(=O)O[C@H]1C(=O)[C@@]2(C)[C@H]([C@H](OC(=O)c3ccccc3)[C@]3(O)C[C@H](OC(=O)[C@H](O)[C@@H](NC(=O)c4ccccc4)c4ccccc4)C(C)=C1C3(C)C)[C@]1(OC(C)=O)CO[C@@H]1C[C@@H]2O [paclitaxel]
- effect of chemotherapeutic agent on the activity of hBAT-1 (murine lymphocytes; [4]): do not adversely affect the activity of hBAT-1

Compound: hBAT-1: humanized monoclonal antibody with CDRs of murine mBAT-1 and human framework regions
- patients reporting adverse events (AE) ([1]; 11 of 18): 61%
- changes in disease parameters ([1]; 21 days, 2 CLL, 4 NHL and one Multiple Myeloma patient): no changes in disease parameters
- clinical response [1, 5]: minimal response
- time to progression after receiving CT-011 [1, 5]: 61 weeks
- change in average percentage of blasts in the peripheral blood ([1]; AML patients, 21 days, excluding one patient): no change
- duration of stable disease ([1]; CLL patient, 0.6 mg/kg): 36 weeks
- duration of stable disease ([1]; CLL patient, 1.5 mg/kg): over 78 weeks
- duration of stable disease ([1]; HD patient, 0.6 mg/kg): 35 weeks
- duration of stable disease ([1]; MM patient, 6.0 mg/kg): over 60 weeks
- Overall Survival (Weeks) [1, 6]: 61 Weeks
- platelet transfusion-independent period [1, 6]: for 9 months
- reduction in peripheral blasts ([1]; Pt. 003/016, AML, on first dose (0.2 mg/kg)): (50% to 5%) on first dose
- Overall Survival (Weeks) ([1]; Pt. 005, CLL, 0.6 mg/kg): 36 Weeks
- Overall Survival (Weeks) ([1]; Pt. 006, HD, 0.6 mg/kg): 35 Weeks
- Overall Survival (Weeks) ([1]; Pt. 008, CLL, 1.5 mg/kg): >78 Weeks
- duration stable ([1]; Pt. 008, CLL, 1.5 mg/kg): Stable for >17 months
- Overall Survival (Weeks) ([1]; Pt. 015, NHL, 3.0 mg/kg): >68 Weeks
- tumor masses by CT scan ([1]; Pt. 015, follicular lymphoma, 10 months post CT-011 treatment): complete elimination of tumor masses
- Overall Survival (Weeks) ([1]; Pt. 017, MM, 6.0 mg/kg): >60 Weeks
- duration stable ([1]; Pt. 017, MM, 6.0 mg/kg): Stable for >13 months
- cumulative survival of all patients ([1]; at 21 days, n=18): 76%
- most frequent AE ([1]; concluded not associated with CT-011 treatment): diarrhea
- patients with apparent response to treatment ([1]; follow-up): 6 patients
- mean survival time ([1]; follow-up beyond 21 days, all patients, listed as CT-011): 25±27 weeks and 25 weeks
- difference in mean survival time across the dose groups ([1]; human, in vivo): No difference
- serious adverse events ([1]; number, all resulted in death, in AML patients): Four
- sustained remission ([1]; patient #015, following CT-011 treatment): 68 weeks
- clinical response ([1]; patient #015, stage III follicular lymphoma, 3.0 mg/kg): complete remission
- dose-limiting toxicity (DLT) ([1]; single dose 0.2 to 6 mg/kg): No DLT was reached
- maximum tolerated dose (MTD) ([1]; single dose 0.2 to 6 mg/kg): No single dose MTD was found
- safety and tolerability ([1]; single dose 0.2 to 6 mg/kg): safe and well tolerated with no treatment-related toxicities
- highest half life [2]: 17.1 days
- median t1/2 of the 6 patients with apparent clinical response versus the rest [3]: somewhat higher than that of the rest of the patients
